These results are taken from patent US8623429B2, “Stabilized anthocyanin compositions” (Omnica GmbH, priority 2007, dated 2014).

Common to all, as to assay type: physicochemical
Series [1] in a line: Cyanidin-3-O-galactoside at pH 3.1 or 7.0 with/without DHLA, 25° C. over 3 days (HPLC). As to the method: Cyanidn-3-O-Galactoside (0.001 molar solution) was dissolved at pH=3.1 or pH=7.0 each with/without DHLA (1.44 mmolar solution). Replicate incubations were followed at 25° C. over 3 days by HPLC.
A short description of series [2]: Example 2: degradation over time of selected bilberry anthocyanosides at 37° C., pH 7.0, with/without GSH (HPLC). Particulars: pH 7.0, 37° C.; for %-residual anthocyanosides (% left): 4.30 hours. As to the method:
Sample a) 60 mg bilberry extract [37% anthocyanosides] (0.048 mmol expressed as cyanidin-3-O-glucoside) were added to a 100 ml, filled to volume with sodium phosphate buffer (5% [w/w], pH=7.0) and stirred until dissolution was complete. A 1 ml sample was immediately taken and acidified with formic acid to pH=1.0 and analyzed by HPLC for the content of anthocyanosides. The remaining solution was kept at 37° C. (water bath) with stirring and additional 1 ml samples (Blank Samples), representing unprotected degradation, were sampled every 15 minutes. The samples were analyzed for selected anthocyanosides by HPLC.
Sample b) 20 mg reduced L-glutathione (0.065 mmol) were added to a 100 ml flask with 60 ml sodium phosphate buffer (5% [w/w], pH=7.0) and stirred until dissolution was complete. 60 mg bilberry extract [37% anthocyanosides] (0.048 mmol expressed as cyanidin-3-O-glucoside) were added and the flask was filled to volume with sodium phosphate buffer (5% [w/w], pH=7.0) and kept at 37° C. (water bath) with stirring. Every 15 minutes, 1 ml samples were taken and analyzed for selected anthocyanosides by HPLC.
(§1) Samples were prepared as outlined below in HPLC Analytical Method. Test stability samples were immediately acidified (to block degradation) and injected undiluted following the detailed description provided below.
HPLC Analytical Method (Materials, Instruments and Methods): […]

The nature of series [3]: Example 1: stability of bilberry extract anthocyanosides, 4 hours at 37° C., pH 7.0, with/without DHLA or GSH (HPLC).
Protocol: (0.048 mmol anthocyanosides expressed as cyanidin-3-O-glucoside) were added to a 100 ml flask and filled to volume with sodium phosphate buffer (5% [w/w], pH=7.0), and stirred until dissolution was complete. A 1 ml sample was taken immediately and acidified with formic acid to pH=1.0 and analyzed by HPLC for the content of anthocyanosides (Fresh Sample). The remaining solution was kept for 4 hours at 37° C. (water bath) with stirring. Thereafter another sample (Blank sample), representing unprotected degradation, was taken and acidified.
(0.048 mmol expressed as cyanidin-3-O-glucoside) were then added and the flask was filled to volume with sodium phosphate buffer (5% [w/w], pH=7.0) and kept for 4 hours at 37° C. (water bath) with stirring.
Quantitation: External standardization based on linear regression analysis. The response factors of all anthocyanosides separated is quantitified against cyanidin-3-O-glucoside.
Test solutions from incubation experiments (with/without cells and with/without stabilizing agents) were used for analysis after stabilization of anthocyanosides with formic acid. Samples were cleared by filtration prior to injection on to HPLC-system.
Series [4] can be described thus: Example 9: stability of bilberry extract anthocyanosides, 4 hours at 37° C., pH 7.0, with/without L-cysteine. As to the method:
Sample a) 60 mg bilberry extract [37% anthocyanosides] (0.048 mmol anthocyanosides expressed as cyanidin-3-O-glucoside) were added to a 100 ml flask with 60 ml sodium phosphate buffer (5% [w/w], pH=7.0), and stirred until dissolution was complete. A 1 ml sample was taken immediately and acidified with formic acid to pH=1.0 and analyzed by HPLC for the content of anthocyanosides (Fresh Sample). The remaining solution was kept for 4 hours at 37° C. (water bath) with stirring. Thereafter another sample (Blank sample), representing unprotected degradation, was taken and acidified.
Sample b) 20 mg L-cysteine […] were added to a 100 ml flask with 60 ml sodium phosphate buffer (5% [w/w], pH=7.0) and stirred until dissolution was complete. 60 mg bilberry extract [37% anthocyanosides] (0.048 mmol expressed as cyanidin-3-O-glucoside) were then added to the flask and stir to fully dissolve, then kept for 4 hours at 37° C. (water bath) with stirring.
After 4 hours, samples were taken and acidified immediately with formic acid to pH=1.0 and analyzed by HPLC for the content of anthocyanosides. Degradation is expressed as decrease in peak area of individual peaks (calculated as % left after 4 hours).
Samples were prepared as outlined above in the HPLC Analytical Method. Test stability samples were immediately acidified (to block degradation) and injected undiluted following the detailed description provided below.

Series [5] in a line: Example 6: stability of free anthocyanidins delphinidin and malvidin at 37° C., pH 7.0, with/without GSH (HPLC). The note with it: pH 7.0, 37° C. As to the method:
Sample a) 5 mg delphinine chloride (0.015 mmol) was transferred into a 100 ml flask, dissolved in 1 ml methanol and filled to volume with sodium phosphate buffer (5% [w/w], pH=7.0). The sample was kept with stirring at 37° C. Samples were taken immediately after dissolution, after 15 minutes, 1, 2, and 3 hours of incubation. The samples were acidified with formic acid to pH=1.0 and analyzed by HPLC.
Sample b) 5 mg malvidin chloride (0.014 mmol) was transferred into a 100 ml flask, dissolved in 1 ml methanol and filled to volume with sodium phosphate buffer (5% [w/w], pH=7.0). The sample was kept with stirring at 37° C. Samples were taken immediately after dissolution and at 1, 2, and 3 hours of incubation. The samples were acidified with formic acid to pH=1.0 and analyzed by HPLC.
Sample c) 5 mg delphinidine chloride (0.015 mmol) and 10 mg GSH (0.032 mmol) were transferred into a 100 ml flask, dissolved in 1 ml methanol and filled to volume with sodium phosphate buffer (5% [w/w], pH=7.0). The sample was kept with stirring at 37° C. Samples were taken at 15 minutes after dissolution and after 1, 2 and 3 hours of incubation. The samples were acidified with formic acid to pH=1.0 and analyzed by HPLC.
Sample d) 5 mg malvidin chloride (0.014 mmol) and 10 mg GSH (0.032 mmol) were transferred into a 100 ml flask, dissolved in 1 ml methanol and filled to volume with sodium phosphate buffer (5% [w/w], pH=7.0). The sample was kept with stirring at 37° C. Samples were taken 15 minutes after dissolution and after 1, 2 and 3 hours of incubation. The samples were acidified with formic acid to pH=1.0 and analyzed by HPLC.
as §1

The mark [6] stands for this setting: 20 mg reduced L-glutathione, pH 7.0, 37° C., 4 hours.
Setting [7] is: 30 mg dihydrolipoic acid, pH 7.0, 37° C., 4 hours.
[8] abbreviates: unprotected, pH 7.0, 37° C., 4 hours.

Consider `OC[C@H]1O[C@@H](Oc2cc3c(O)cc(O)cc3[o+]c2-c2ccc(O)c(O)c2)[C@H](O)[C@@H](O)[C@H]1O` [Cn-3O-Gal, Cyanidin-3-O-galactoside], for which the “recovered after 3 days” value is given as 95% in series [1] (pH 3.1, 25° C., in presence of DHLA (1.44 mmolar)); 61% in series [1] (pH 3.1, 25° C., unprotected sample); “about 47%” in series [1] (pH 7.0, 25° C., in presence of DHLA (1.44 mmolar)); about 0% in series [1] (pH 7.0, 25° C., unprotected sample). The “Peak Area” value in series [2] (Blank Sample, 1:15 h) was 305.40; in series [2] (Blank Sample, 4:15 h), 300.50; in series [2] (Blank Sample, 4:30 h), 205.36; in series [2] (Blank sample, 0:00 h), 498.85; in series [2] (Blank sample, 0:15 h), 390.37; in series [2] (Blank sample, 0:30 h) it was 433.94. In addition, the “Peak Area” value in series [2] (Blank sample, 0:45 h) came to 347.29; in series [2] (Blank sample, 1:00 h), 380.25; in series [2] (Blank sample, 1:45 h) it was 353.94; in series [2] (Blank sample, 2:00 h) it was 337.90; in series [2] (Blank sample, 2:15 h), 320.70; in series [2] (Blank sample, 2:30 h), 271.19. The “Peak Area” value in series [2] (Blank sample, 2:45 h) came out at 274.22; in series [2] (Blank sample, 3:00 h), 324.58; in series [2] (Blank sample, 3:15 h), 324.25; in series [2] (Blank sample, 3:30 h), 281.19; in series [2] (Blank sample, 4:00 h), 315.54; in series [2] (GSH Protected Sample (20 mg), 0:30 h) it was 470.61. The “Peak Area” value is reported as 431.86 in series [2] (GSH Protected Sample (20 mg), 1:30 h); 390.23 in series [2] (GSH Protected Sample (20 mg), 2:30 h); 422.54 in series [2] (GSH Protected Sample (20 mg), 3:30 h); 420.37 in series [2] (GSH Protected Sample (20 mg), 4:30 h); 393.21 in series [2] (GSH Protected Sample (20 mg), 4:45 h); 508.09 in series [2] (GSH protected sample (20 mg), 0:00 h). Moreover, the “Peak Area” value turned out to be 504.88 in series [2] (GSH protected sample (20 mg), 0:15 h); 425.89 in series [2] (GSH protected sample (20 mg), 0:45 h); 462.71 in series [2] (GSH protected sample (20 mg), 1:00 h); 452.17 in series [2] (GSH protected sample (20 mg), 1:15 h); 442.86 in series [2] (GSH protected sample (20 mg), 1:45 h); 436.19 in series [2] (GSH protected sample (20 mg), 2:00 h). For the same molecule, the “Peak Area” value in series [2] (GSH protected sample (20 mg), 2:15 h) was found to be 442.30; in series [2] (GSH protected sample (20 mg), 2:45 h) it was 422.32; in series [2] (GSH protected sample (20 mg), 3:00 h) it was 433.21; in series [2] (GSH protected sample (20 mg), 3:15 h), 425.54; in series [2] (GSH protected sample (20 mg), 3:45 h), 397.72; in series [2] (GSH protected sample (20 mg), 4:00 h) it was 446.42. In addition, in series [2] (GSH protected sample (20 mg), 4:15 h), the “Peak Area” value is 419.80. For the same molecule, the “%-residual anthocyanosides (% left)” value in series [2] (Blank) amounted to 41%; in series [2] (GSH-protected) it was 77%; in series [2] (GSH-protected, listed as cyanidin-3-O-galactose), 77%. Besides, the “% left, GSH (4 hours)” value in series [3] (setting [6]) was 77.3%. Besides, in series [3] (setting [6]), the “Peak Area, GSH (4 hours)” value turned out to be 360.2. Moreover, the “% left, DHLA (4 hours)” value in series [3] (setting [7]) amounted to 64.5%. Besides, in series [3] (setting [7]), the “Peak Area, DHLA (4 hours)” value is on record as 300.3. Moreover, the “Peak Area, Fresh (0 hours)” value in series [3] (bilberry extract 60 mg/100 ml sodium phosphate buffer pH 7.0, fresh sample) amounted to 465.8. The “% left, Blank (4 hours)” value in series [3] (setting [8]) was 41.0%. In series [3] (setting [8]), the “Peak Area, Blank (4 hours)” value was found to be 191.1. Moreover, the “Peak Area, Fresh solution” value in series [4] (bilberry extract 60 mg in buffer pH 7.0, fresh sample) turned out to be 465.8. Moreover, the “% left, L-cysteine 20 mg” value in series [4] (pH 7.0, 37° C., 4 hours) was determined as 77.3%. In series [4] (pH 7.0, 37° C., 4 hours), the “Peak Area, L-cysteine 20 mg” value came out at 360.2. In addition, the “% left, Blank” value in series [4] (setting [8]) was 41.0%. Also, the “Peak Area, Blank” value in series [4] (setting [8]) was found to be 191.1.
On to `Oc1cc(O)c2cc(O)c(-c3cc(O)c(O)c(O)c3)[o+]c2c1` [Delphinidin], for which the “Peak Area” value in series [5] (Blank, 0 hours) is listed as 48.6; in series [5] (Blank, 0.25 hours), “BLD”; in series [5] (Blank, 1 hour), “BLD”; in series [5] (Blank, 2 hours), “BLD”; in series [5] (Blank, 3 hours), “BLD”; in series [5] (GSH 10 mg, 0.25 hours), “BLD”. Moreover, the “Peak Area” value is listed as “BLD” in series [5] (GSH 10 mg, 1 hour); “BLD” in series [5] (GSH 10 mg, 2 hours); “BLD” in series [5] (GSH 10 mg, 3 hours).
On to `COc1cc(-c2[o+]c3cc(O)cc(O)c3cc2O)cc(OC)c1O.[Cl-]` [Malvidin], for which the “Peak Area” value came out at 1228 in series [5] (Blank, 0 hours); 661.6 in series [5] (Blank, 1 hour); 175.3 in series [5] (Blank, 2 hours); 56.4 in series [5] (Blank, 3 hours); 530.1 in series [5] (GSH 10 mg, 1 hour); 263.5 in series [5] (GSH 10 mg, 2 hours). Further, in series [5] (GSH 10 mg, 3 hours), the “Peak Area” value stood at 5.6.
